Source: article PMC8878464, “Fenchone Derivatives as a Novel Class of CB2 Selective Ligands: Design, Synthesis, X-ray Structure and Therapeutic Potential” (Molecules, 2022)
Several values for one entry are separate records, joined by “and”; a condition that tells them apart may be missing. Identical values can stand only once. Entries after “also recorded” stand apart in the source; their conditions may differ. Like-named read-outs stand apart in the source and are kept apart here.

Experiments:
human CB1R (hCB1R) = molecular target: T1, human CB1R (hCB1R) (Homo sapiens, UniProt P21554); assay: [3H]CP-55,940 competition displacement binding assay, hCB1R membranes
T1 construct: purchased Charles River A317
T1 sequence (P21554 whole entry): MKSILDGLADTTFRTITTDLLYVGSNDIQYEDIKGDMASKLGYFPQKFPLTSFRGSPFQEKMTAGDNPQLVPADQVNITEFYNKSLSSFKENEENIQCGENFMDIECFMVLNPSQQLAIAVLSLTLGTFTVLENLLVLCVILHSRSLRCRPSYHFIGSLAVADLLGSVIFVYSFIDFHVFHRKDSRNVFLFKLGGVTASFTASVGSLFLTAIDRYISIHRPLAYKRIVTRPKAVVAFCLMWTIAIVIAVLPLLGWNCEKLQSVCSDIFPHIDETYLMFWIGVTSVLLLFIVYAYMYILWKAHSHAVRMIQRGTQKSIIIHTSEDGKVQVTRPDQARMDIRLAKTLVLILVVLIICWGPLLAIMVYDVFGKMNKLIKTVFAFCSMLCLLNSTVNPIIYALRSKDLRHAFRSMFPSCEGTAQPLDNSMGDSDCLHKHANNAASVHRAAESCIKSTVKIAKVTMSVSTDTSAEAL
Procedure: (§1) The compounds were further characterized using a radioligand binding assay to determine their affinities for CB1R and CB2R based on each test compound’s ability to displace the radiolabeled CB1R/CB2R agonist CP-55,940 from membranes of cells expressing the human CB1R and CB2R [24].
(§2) Membranes from cells expressing hCB1R and hCB2R were purchased from Charles River, (Cat#A317 and A318, respectively; OH, USA). Solutions of test compounds ranging from 0.1 nM to 10 mM were prepared in DMSO. The desired amount of membrane preparation was diluted with ice-cold assay buffer (50 mM Tris-HCl, 2.5 mM EDTA, 5 mM MgCl2, 0.1% BSA, pH 7.4) and was vortexed. […] The assays were incubated for 90 min at 30 °C and then immediately filtered on WHATMAN GF/B Filter Paper (Fired) using a Brandel M-24R Harvester followed by six washes with ice cold wash buffer (50 mM Tris-HCl, 2.5 mM EDTA, 5 mM MgCl2, 0.1% BSA, pH 7.4). Radioactivity was detected by adding the Filter Paper directly to the ULTIMA GOLD scintillation cocktail (PerkinElmer, Waltham, MA, USA), incubation at 20 °C for 60 min and then counted using a Tri-Carb 4910TR liquid scintillation counter (PerkinElmer, Waltham, MA, USA).

human CB2R (hCB2R) = human CB2R (hCB2R) (Homo sapiens, UniProt P34972); assay: [3H]CP-55,940 competition displacement binding assay, hCB2R membranes
Chain of human CB2R (hCB2R) (P34972 whole entry): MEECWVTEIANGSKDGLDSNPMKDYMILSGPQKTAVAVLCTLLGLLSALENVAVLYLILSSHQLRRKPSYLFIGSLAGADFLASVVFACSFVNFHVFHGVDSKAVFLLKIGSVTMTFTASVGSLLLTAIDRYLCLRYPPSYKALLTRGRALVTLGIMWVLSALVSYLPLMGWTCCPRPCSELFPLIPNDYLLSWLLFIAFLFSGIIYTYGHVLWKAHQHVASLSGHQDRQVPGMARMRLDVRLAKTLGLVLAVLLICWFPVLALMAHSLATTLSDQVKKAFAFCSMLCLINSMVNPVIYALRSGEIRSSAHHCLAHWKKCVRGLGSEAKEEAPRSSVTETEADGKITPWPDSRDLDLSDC
Procedure: as §1, §2
Each curve represents the mean of three experiments performed in triplicate.

[1] = tested on: zymosan-induced paw inflammation; assay: Zymosan-induced hind paw swelling (oedema) in mice; format: in vivo; details: 25 mg/kg ip, 6 h after 60 μg zymosan paw injection
hCB2R = molecular target: T2, hCB2R (Homo sapiens, UniProt P34972); assay: [35S]GTPγS binding assay at hCB2R; format: biochemical; details: for functional activity at hCB2R (agonist / antagonist / inverse agonist): [35S]GTPγS binding; for EC50: increase in [35S]GTPγS binding to hCB2R, two independent experiments in triplicate
T2 construct: purchased Charles River A318; host or cells: CHO-K1 cells
T2 sequence (P34972 whole entry): as above
Procedure: The method used for measuring agonist-stimulated binding of [^35S]GTPγS was based on a described protocol. Membranes (5 μg protein) were incubated in GTPγS assay buffer (50 mM Tris HCl (pH 7.4), 0.2 mM EGTA, 9 mM MgCl2, 150 mM NaCl, 1 mg/mL BSA) containing 100 μM GDP, 0.05 nM [^35S]GTPγS and test compounds at various concentrations. Vacuum filtration was used to separate bound ligand from free ligand. We used 10 μM GTPS to determine nonspecific binding. Basal binding was assayed in the absence of the ligand and in the presence of GDP.
Each symbol represents the mean percentage increase in [^35S]GTPγS binding ± SE.

TNF-α = assay: Serum TNF-α (ELISA) after zymosan injection in mice; format: in vivo; details: 25 mg/kg ip, 24 h after zymosan
Procedure: Control mice were injected with vehicle.
A mouse TNFα ELISA kit was used according to the manufacturer’s instructions (R&D Systems, Minneapolis, MN, USA).

[2] = displacement of [3H]CP-55,940, membranes of CHO-K1 cells expressing human CB2R, read-out: Ki (nM) hCB2R
[3] = maximal effect as percentage of HU-308 response at 1 µM

| Molecule | Ki (human CB1R (hCB1R); read-out: Ki (nM) hCB1R) [nM] | Ki (human CB2R (hCB2R); [2]) | functional activity at hCB2R (agonist / antagonist / inverse agonist) (hCB2R) | also measured |
| --- | --- | --- | --- | --- |
| 2-(2′-Methoxy-5′-octylphenyl)-1,3,3-trimethylbicyclo[2.2.1]heptan-2-ol [Compound 3g] |  |  |  | Ki (human CB1R (hCB1R); displacement of [3H]CP-55,940, class word NB, read-out: Ki (nM) hCB1R): > 10000 nM |
| CCCCCc1cc(OC)c(C2(O)C3(C)CCC(C3)C2(C)C)c(OC)c1 (centres unmarked) [Compound 1a, 2-(2′,6′-Dimethoxy-4′-pentylphenyl)-1,3,3-trimethylbicyclo[2.2.1]heptan-2-ol] | > 10000 | 47.7 nM |  | inhibition of [3H]CP-55,940 binding to hCB1R (human CB1R (hCB1R); result in words): no measurable inhibition |
| CCCCCc1cc(OC)c(C2(O)C3(C)CCC(C3)C2(C)C)c(OC)c1 (centres unmarked) [Compound 1b, 2-(2′,6′-Dimethoxy-4′-pentylphenyl)-1,3,3-trimethylbicyclo[2.2.1]heptan-2-ol] |  | 14.4 nM | agonist | reduction in swelling [1]: 54%; E(max)% (hCB2R): 65.1%; EC50 (hCB2R): 11.6 nM; inhibition of TNF-α serum levels (TNF-α): 39% |
| CCCCCCC(C)(C)c1cc(OC)c(C2(O)C3(C)CCC(C3)C2(C)C)c(OC)c1 (centres unmarked) [Compound 1c, 2-(2′,6′-Dimethoxy-4′-(2″-methyloctan-2″-yl)phenyl)-1,3,3-trimethylbicyclo[2.2.1]heptan-2-ol] | > 10000 | 56.8 nM | agonist | EC50 (hCB2R): 121 nM |
| COc1cc(C)cc(OC)c1C1(O)C2(C)CCC(C2)C1(C)C (centres unmarked) [Compound 1e, 2-(2′,6′-Dimethoxy-4′-methylphenyl)-1,3,3-trimethylbicyclo[2.2.1]heptan-2-ol] | > 10000 |  |  | Ki (human CB2R (hCB2R); displacement of [3H]CP-55,940, value given in µM, read-out: Ki (nM) hCB2R): > 10000 nM |
| COc1cc(C)cc(OC)c1C1(O)C2(C)CCC(C2)C1(C)C (centres unmarked) [Compound 1f, 2-(2′,6′-Dimethoxy-4′-methylphenyl)-1,3,3-trimethylbicyclo[2.2.1]heptan-2-ol] |  | 233 nM |  |  |
| CCCCCCc1ccc(OC)c(C2(O)C3(C)CCC(C3)C2(C)C)c1OC (centres unmarked) [Compound 2a, 2-(3′-Hexyl-2′,6′-dimethoxyphenyl)-1,3,3-trimethylbicyclo[2.2.1]heptan-2-ol] | > 10000 | 224 nM and 223 nM |  |  |
| CCCCCCc1ccc(OC)c(C2(O)C3(C)CCC(C3)C2(C)C)c1OC (centres unmarked) [Compound 2b, 2-(3′-Hexyl-2′,6′-dimethoxyphenyl)-1,3,3-trimethylbicyclo[2.2.1]heptan-2-ol] |  | 73.4 nM | weakly stimulated; also recorded: agonist | E(max)% (hCB2R): 46.2%; EC50 (hCB2R): 1940 nM |
| CCCc1ccc(OC)c(C2(O)C3(C)CCC(C3)C2(C)C)c1 (centres unmarked) [Compound 3a, 2-(2′-Methoxy-5′-propylphenyl)-1,3,3-trimethylbicyclo[2.2.1]heptan-2-ol] | > 10000 | 1010 nM |  |  |
| CCCc1ccc(OC)c(C2(O)C3(C)CCC(C3)C2(C)C)c1 (centres unmarked) [Compound 3b, 2-(2′-Methoxy-5′-propylphenyl)-1,3,3-trimethylbicyclo[2.2.1]heptan-2-ol] |  | 610 nM |  |  |
| CCCCCc1ccc(OC)c(C2(O)C3(C)CCC(C3)C2(C)C)c1 (centres unmarked) [Compound 3c, 2-(2′-Methoxy-5′-pentylphenyl)-1,3,3-trimethylbicyclo[2.2.1]heptan-2-ol] | > 10000 | 444 nM |  |  |
| CCCCCc1ccc(OC)c(C2(O)C3(C)CCC(C3)C2(C)C)c1 (centres unmarked) [Compound 3d, 2-(2′-Methoxy-5′-pentylphenyl)-1,3,3-trimethylbicyclo[2.2.1]heptan-2-ol] |  | 834 nM |  |  |
| CCC(C)(C)c1ccc(OC)c(C2(O)C3(C)CCC(C3)C2(C)C)c1 (centres unmarked) [Compound 3e, 2-(2′-Methoxy-5′-(tert-pentyl)phenyl)-1,3,3-trimethylbicyclo[2.2.1] heptan-2-ol] | > 10000 | 2870 nM |  |  |
| CCC(C)(C)c1ccc(OC)c(C2(O)C3(C)CCC(C3)C2(C)C)c1 (centres unmarked) [Compound 3f, 2-(2′-Methoxy-5′-(tert-pentyl)phenyl)-1,3,3-trimethylbicyclo[2.2.1] heptan-2-ol] |  | 1450 nM |  |  |
| CCCCCCCCc1ccc(OC)c(C2(O)C3(C)CCC(C3)C2(C)C)c1 (centres unmarked) [Compound 3h, 2-(2′-Methoxy-5′-octylphenyl)-1,3,3-trimethylbicyclo[2.2.1]heptan-2-ol] | > 10000 |  |  |  |
| CCCCCc1cc(OC)c(C2(O)C3(C)CCC(C3)C2(C)C)c(OC)c1F (centres unmarked) [Compound 4a, 2-(3′-Fluoro-2′,6′-dimethoxy-4′-pentylphenyl)-1,3,3-trimethylbicyclo[2.2.1]heptan-2-ol] | > 10000 | 155 nM |  |  |
| CCCCCc1cc(OC)c(C2(O)C3(C)CCC(C3)C2(C)C)c(OC)c1F (centres unmarked) [Compound 4b, 2-(3′-Fluoro-2′,6′-dimethoxy-4′-pentylphenyl)-1,3,3-trimethylbicyclo[2.2.1]heptan-2-ol] |  | 28.3 nM | agonist | EC50 (hCB2R): 305 nM; E(max)% (hCB2R; [3]): 54.2% |
| CCCCCCC(C)(C)c1cc(OC)c(C2(O)C3(C)CCC(C3)C2(C)C)c(OC)c1F (centres unmarked) [Compound 4c, 2-(3′-fluoro-2′,6′-dimethoxy-4′-(2″-methyloctan-2″-yl)phenyl)-1,3,3-trimethylbicyclo[2.2.1]heptan-2-ol] | > 10000 | 438 nM |  |  |
| CCCCCCC(C)(C)c1cc(OC)c(C2(O)C3(C)CCC(C3)C2(C)C)c(OC)c1F (centres unmarked) [Compound 4d, 2-(3′-fluoro-2′,6′-dimethoxy-4′-(2″-methyloctan-2″-yl)phenyl)-1,3,3-trimethylbicyclo[2.2.1]heptan-2-ol] |  | 56.6 nM | agonist | EC50 (hCB2R): 104 nM; E(max)% (hCB2R; [3]): 119% |
| CCCCCc1cc(O)c(C2(O)C3(C)CCC(C3)C2(C)C)c(OC)c1 (centres unmarked) [Compound 5a, 2-(2′-hydroxy-6′-methoxy-4′-pentylphenyl)-1,3,3-trimethylbicyclo[2.2.1]heptan-2-ol] | > 10000 | 4980 nM |  |  |
| CCCCCc1cc(O)c(C2(O)C3(C)CCC(C3)C2(C)C)c(OC)c1 (centres unmarked) [Compound 5b, 2-(2′-hydroxy-6′-methoxy-4′-pentylphenyl)-1,3,3-trimethylbicyclo[2.2.1]heptan-2-ol] |  | 36.5 nM | agonist | E(max)% (hCB2R): 69.5%; EC50 (hCB2R): 82.8 nM |
| CCCCCCC(C)(C)c1cc(O)c(C2(O)C3(C)CCC(C3)C2(C)C)c(OC)c1 (centres unmarked) [Compound 5c, 2-(2′-Hydroxy-6′-methoxy-4′-(2″-methyloctan-2″-yl)phenyl)-1,3,3-trimethylbicyclo-[2.2.1]heptan-2-ol] | > 10000 | 107 nM |  |  |
| CCCCCCC(C)(C)c1cc(O)c(C2(O)C3(C)CCC(C3)C2(C)C)c(OC)c1 (centres unmarked) [Compound 5d, 2-(2′-Hydroxy-6′-methoxy-4′-(2″-methyloctan-2″-yl)phenyl)-1,3,3-trimethylbicyclo-[2.2.1]heptan-2-ol] |  |  | agonist | EC50 (hCB2R): 14.8 nM; E(max)% (hCB2R; [3]): 105%; Ki (human CB2R (hCB2R); Ki (nM) hCB2R): 24.6 nM and 24.5 nM |
| CCCCCCC(C)(C)c1cc(OC)c([C@@H]2C=C(CO)[C@@H]3C[C@H]2C3(C)C)c(OC)c1 [HU-308, reference compound] |  |  | agonist | reduction in swelling [1]: 20%; Ki (human CB1R (hCB1R)): > 10000 nM; E(max)% (hCB2R; [3]): 100%; inhibition of TNF-α serum levels (TNF-α): 28% |
